In patent US7459284B2, “Chemiluminescent acridinium compounds and analogues thereof as substrates of hydrolytic enzymes” (Siemens Healthcare Diagnostics Inc., priority 1999, dated 2008):
Counter-ions that a name gives are not always drawn. Like-named read-outs stand apart in the source and are kept apart here.

Experiments:
[1] = Light emission spectra by Fast Spectral Scanning System (FSSS); assay type: physicochemical
Method: The light emission spectra of compounds 1˜12 and 15˜18 were determined by a Fast Spectral Scanning System (FSSS) of Photo Research (a division of Kollmorgen Corp.) of Burbank, Calif., U.S.A. The experiment was carried out in a dark room. Each compound was dissolved in acetonitrile or N,N-dimethylformamide. The resulting concentrate was diluted with the same solvent to form the working solution, which upon flashing gave a light emission with an adequate intensity. A typical experiment utilized 10˜100 μg or more of the sample in 500 μl of the solvent contained in a 13×100 mm borosilicate test tube. The tube was placed on a test tube rack raised to a proper height. A piece of aluminum foil was placed on the back of the tube to enhance the detectability of the emitted light. The FSSS optical head was placed in front of the tube at an approximate distance of about 130 mm with its lens focused on the liquid in the tube. The sample solution was first treated with 0.35 ml of the Flashing Reagent #1 (Bayer Diagnostics) containing 0.1 N HNO3 and 0.5% H2O2. The room was then darkened, and 0.35 ml of the Flashing Reagent #2 (Bayer Diagnostics) containing 0.25 N NaOH and 0.5% ARQUAD was added to the reaction mixture immediately. (See U.S. Pat. No. 4,927,769, which is commonly assigned and incorporated herein by reference.) The light which was generated instantaneously following the addition of the Reagent #2 was recorded by FSSS for 5 seconds starting from about one second before the Reagent #2 was added.

[2] = target: T1, alkaline phosphatase (Bos taurus, UniProt P19111); assay: Enzymatic conversion of substrate by alkaline phosphatase (HPLC analysis); assay type: biochemical; conditions: alkaline aqueous medium; about 1 hour
T1 sequence (P19111 20-506): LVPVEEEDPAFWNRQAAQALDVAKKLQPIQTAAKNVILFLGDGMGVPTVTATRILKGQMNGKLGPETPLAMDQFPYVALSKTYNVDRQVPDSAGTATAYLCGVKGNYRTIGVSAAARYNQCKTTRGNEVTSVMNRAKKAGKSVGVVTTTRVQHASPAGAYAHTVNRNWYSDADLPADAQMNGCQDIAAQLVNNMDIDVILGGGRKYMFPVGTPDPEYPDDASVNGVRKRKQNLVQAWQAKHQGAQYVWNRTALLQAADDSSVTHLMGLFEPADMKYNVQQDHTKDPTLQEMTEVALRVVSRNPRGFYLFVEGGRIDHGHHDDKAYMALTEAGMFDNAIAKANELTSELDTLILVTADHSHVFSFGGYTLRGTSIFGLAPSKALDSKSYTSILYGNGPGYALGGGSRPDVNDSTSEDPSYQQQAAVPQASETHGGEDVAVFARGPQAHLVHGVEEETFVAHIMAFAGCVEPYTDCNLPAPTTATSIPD
Method: A 1 mM DMF solution of the acridinium 3-enol-phosphate (13) was mixed with 150 μL of 100 mM Tris pH 9 also containing 1 mM MgCl2. Alkaline phosphatase (5 μl of a 2 mg/ml solution) was added and the reaction was incubated at room temperature for ˜1 hour. […] The product was isolated by semi-preparative HPLC using a 7.8×300 mm, C18 column. MALDI-TOF MS of the product indicated this was indeed the keto product (14): m/z 521.36 obs. (520.56 calc.).
A 20 μL DMF solution of the acridan (15) (1.7 mM) was combined with 180 μl of 0.15 M 2-amino-2-methyl-1-propanol pH 10.3 also containing 1 mM magnesium acetate. A clear blue solution was obtained (0.17 mM substrate), which was then treated with alkaline phosphatase (10^−10 moles). The blue color was discharged instantly. […] The reaction mixture was then evaluated by the FSSS to determine the light emission spectrum of the product, which is shown in FIG. 2N. The product was isolated by semi-preparative HPLC. […] (521.56 calc.).

[3] = target: T1, alkaline phosphatase; assay: Alkaline phosphatase assay using 2-Phos-DMAE (1) as chemiluminescent substrate; assay type: biochemical; conditions: 0.1 mM substrate, pH 9 Tris, 45° C., 1 hour; R2228P PMT, LL700 filter, 4° C.
Method: With one or more of the above approaches combined, several assay systems based on the principle of detecting the long emission signal generated by the action of AP on 2-Phos-DMAE (1) are constructed, and disclosed in the section of Examples. One example (Example 17) consists of the incubation of AP standards in a substrate solution containing 0.1 mM 2-Phos-DMAE (1), 1 mM magnesium chloride in 100 mM, pH 9 Tris buffer at 45° C. for 1 hour. The light outputs were measured on a luminometer equipped with a red-sensitive PMT (R2228P) and a long pass filter (LL700), which is placed in a 4° C. cold room. The sample was treated first with 0.25 N sodium hydroxide solution containing 0.5% AQUARD, immediately followed by 0.5% hydrogen peroxide.
The substrate solution of 2-Phos-DMAE (1) was prepared at 0.1 mM in 100 mM, pH 9.0 Tris buffer containing 1 mM MgCl2. […] The light outputs were measured for 2 seconds on Bayer Diagnostics Magic Lite Analyzer 1 (MLA-1) equipped with R268 PMT and two LL650 long wavelength pass filters (Corion, Lot No. CFS-002645). […]
According to Example 16, an assay of alkaline phosphatase was carried out by adding 5 μl of the AP standard to 95 μl of the substrate solution. […] The light outputs were measured for 2 seconds on MLA-1 equipped with R2228P PMT and a LL700 long wavelength pass filters, and the unit was pre-cooled in a cold room (4° C).

[4] = Quantum yield when flashed with alkaline solution first, then hydrogen peroxide; assay type: physicochemical; conditions: 0.25 N sodium hydroxide with 0.5% AQUARD first, followed by 0.5% hydrogen peroxide
Method: More specifically, when a solution of 1 is treated with 0.25 N sodium hydroxide solution containing 0.5% AQUARD, followed by 0.5% hydrogen peroxide, the quantum yield of 1 is lowered by more than 30 fold. […] Thus, to the advantage of better distinction between the signals of certain chemiluminescent products and their substrates, preferably, said alkaline solution contains sodium hydroxide at concentration of 0.01 to 1.0 N, and AQUARD at concentration of 0.01 to 1%, and said hydrogen peroxide solution contains hydrogen peroxide at concentration of 0.001 to 5%. More preferably, said alkaline solution contains 0.25 N sodium hydroxide and 0.5% AQUARD, and said hydrogen peroxide solution contains 0.5% hydrogen peroxide.

[5] = strong alkaline solution; disclosed in WO 00/09487; cited from earlier work
[6] = FSSS, hydrogen peroxide in strong alkaline solution
[7] = spectral region with signal intensity above 5% of peak height, FSSS scanning limit 380-780 nm, flashed with 0.1 N HNO3/0.5% H2O2 then 0.25 N NaOH/0.5% ARQUAD

Row | Molecule | Emission Maximum [1, 6] [nm] | Emission Range [1, 7] | also measured
1 | Cc1cc(C(=O)O)cc(C)c1OC(=O)c1c2ccccc2[n+](C)c2ccc(OP(=O)(O)O)cc12.[Na+].[Na+] [Compound 1, (2′,6′-dimethyl-4′-carboxyl)phenyl 10-methyl-2-Phosphoryloxy-acridinium-9-carboxylate bromide] | 478 | 430-600 nm | conversion by alkaline phosphatase [2]: excellent substrate; level of alkaline phosphatase detected [3]: below 1×10^−18 mole; lowering of quantum yield [4]: more than 30 fold
2 | Cc1cc(C(=O)O)cc(C)c1OC(=O)c1c2ccccc2[n+](C)c2ccc(O)cc12 [Compound 2, (2′,6′-dimethyl-4′-carboxyl)phenyl 2-hydroxy-10-methyl-acridinium-9-carboxylate trifluoroacetate] | 602 | 500-780^ nm | bathochromic shift of emission maximum ([1]; compound 2 relative to compound 1): 128 nm; emission λmax [5]: 604 nm; lowering of quantum yield [4]: basically not affected
3 | Cc1cc(C(=O)OCc2ccccc2)cc(C)c1OC(=O)c1c2ccccc2[n+](C)c2ccc(OP(=O)(O)O)cc12 [Compound 3, (2′,6′-dimethyl-4′-benzyloxy-carbonyl)phenyl 2-phosphoryloxy-10-methyl-acridinium-9-carboxylate trifluoroacetate] | 474 | 430-600 nm | 
4 | Cc1cc(C(=O)OCc2ccccc2)cc(C)c1OC(=O)c1c2ccccc2[n+](C)c2ccc(O)cc12 [Compound 4, (2′,6′-dimethyl-4′-benzyl-oxycarbonyl)phenyl 2-hydroxy-10-methyl-acridinium-9-carboxylate trifluoroacetate] | 604 | 500-780^ nm | 
5 | C[n+]1c2ccccc2c(C(=O)Oc2ccccc2)c2cc(OP(=O)(O)O)ccc21 [Compound 5, phenyl 10-methyl-2-Phosphoryloxy-acridinium-9-carboxylate trifluoroacetate] | 478 | 430-600 nm | 
6 | C[n+]1c2ccccc2c(C(=O)Oc2ccccc2)c2cc(O)ccc21 [Compound 6, phenyl 2-hydroxy-10-methyl-acridinium-9-carboxylate trifluoromethanesulfonate] |  |  | Emission Maximum [1]: 600 nm; Emission Range [1]: 500-780^ nm
7 | Cc1cc(C(=O)O)cc(C)c1OC(=O)c1c2ccccc2[n+](CCCCS(=O)(=O)[O-])c2ccc(OP(=O)(O)O)cc12 [Compound 7, (2′, 6′-dimethyl-4′-carboxyl)phenyl 2-phosphoryloxy-10-sulfobutyl-acridinium-9-carboxylate] | 474 | 430-600 nm | 
8 | Cc1cc(C(=O)O)cc(C)c1OC(=O)c1c2ccccc2[n+](CCCCS(=O)(=O)[O-])c2ccc(O)cc12 [Compound 8, (2′, 6′-dimethyl-4′-carboxyl)phenyl 2-hydroxy-10-sulfobutyl-acridinium-9-carboxylate] | 594 | 500-780^ nm | 
9 | COc1ccc2c(c1)c(C(=O)Oc1c(C)cc(C(=O)O)cc1C)c1cc(OP(=O)(O)O)ccc1[n+]2C.[Na+].[Na+] [Compound 9, (2′,6′-dimethyl-4′-carboxyl)phenyl 2-phosphoryloxy-7-methoxy-10-methyl acridinium-9-carboxylate] | 476 | 440-600 nm | 
10 | COc1ccc2c(c1)c(C(=O)Oc1c(C)cc(C(=O)O)cc1C)c1cc(O)ccc1[n+]2C [Compound 10, (2′,6′-dimethyl-4′-carboxyl)phenyl 2-hydroxy-7-methoxy-10-methyl acridinium-9-carboxylate] | 674 | 520-780^ nm | longer emission maxima than unmethoxylated compound 2 ([1]; 2-OH-7-MeO-DMAE vs 2-OH-DMAE): 60-70 nm
11 | CN1c2ccccc2C2(Oc3ccccc3OC2=O)c2cc(OP(=O)(O)O)ccc21 (centres unmarked) [Compound 11, 2-Phos-Spiroacridan] | 474 | 430-600 nm | 
12 | Cc1cc(C(=O)O)cc(C)c1OC(=O)c1c2ccccc2[n+](C)c2cc(/C(=C/c3ccc(O)cc3)OP(=O)(O)O)ccc12 [Compound 13, (2′,6′-dimethyl-4′-carboxyl)phenyl 3-(β-phosphoryloxy-4′-hydroxystyryl)-10-methyl acridinium-9-carboxylate trifluoromethanesulfonate] |  |  | conversion by alkaline phosphatase [2]: complete conversion
13 | C[n+]1c2ccccc2c(C(=O)Oc2ccc(O)cc2)c2ccccc21 [Compound 18, 4′-hydroxyphenyl 10-methyl acridinium-9-carboxylate trifluoromethanesulfonate] |  |  | Emission Maximum [1]: 452 nm; Emission Range [1]: 410-540 nm
14 | (2′,6′-dimethyl-4′-carboxyl)phenyl 3-(β-phosphoryloxy-4′-hydroxystyryl)-10-methyl acridan [Compound 15] | 678 | 520-780^ nm | conversion by alkaline phosphatase [2]: clean conversion
